Source: patent publication US11584744B2 (UNIVERSITY OF WASHINGTON, priority 2017, dated 2023)
Converted amounts (≈) assume the structure as drawn.

Legend:
[1] = test system: S. aureus MRSA (ATCC 43300); assay: MIC susceptibility testing; format: cell-based; conditions: Staphylococcus aureus; read-out: S. aureus MRSA (ATCC 43300) MIC
In short: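 CLSI broth microdilution with two-fold compound dilutions, in triplicate; cells added in medium at 1×10^6 CFUs/mL, DMSO ≤0.5%. Media: MHB for S. aureus, CA-MHB for E. coli and E. faecium, CA-MHB plus 3% laked horse blood for S. pyogenes (5% CO2).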

S. aureus (ATCC 29213) [2] = format: cell-based, Staphylococcus aureus; conditions: 8× the MIC; for Resistance frequency (Expt. 1) / Resistance frequency (Expt. 2): 72 h; for Resistance frequency (average or greater #): two independent experiments
Protocol: Resistance frequency rates determination: The spontaneous resistance frequency rates to test compounds was determined according to published methods. Agar selection plates were made by adding compound from DMSO stocks into molten Mueller Hinton agar in a 55° C. water bath. […] The final DMSO concentration was <0.1% per plate. Plates were dried in a sterile hood for 30 minutes prior to overnight storage at 4° C., and pre-warmed in the 37° C. incubator for 1 hour prior to assay.
A fresh overnight culture was diluted 1:50 in MHB and grown at 37° C. with shaking (150 rpm) until reaching an OD600 of 0.4 correlating to ˜2×10^9 CFUs/mL. Approximately 3 mL for a total of 6*10^9 CFUs were distributed onto 4 plates for each compound. Plates were incubated at 37° C. for 72 h prior to counting of colonies. The starting inoculum was also serially diluted and plated to quantify initial bacterial load. The resistance frequency was determined as the number of compound-resistant colonies divided by the total colonies plated.
Resistance frequency rates: The propensity for S. aureus to develop resistance to MetRS inhibitors was also studied (Table 6).

S. aureus (ATCC 29213) [3] = assay: MBC determinations (with MIC); format: cell-based; conditions: Staphylococcus aureus, ATCC29213, S. aureus (ATCC 29213); for MIC: MBC experiment (Table 5), read-out: MIC; for MBC: concentration killing 99.9% of inoculum, read-out: MBC
Protocol: Maximum DMSO concentrations were 0.5%. […] Each experiment's inoculum was serially diluted and plated on TSA to count competent cells. Cultures were incubated at 37° C. for at least 20 h and plated on TSA for CFU determination.
MIC/MBC: Measurements of minimum bactericidal concentrations (MBCs) were done with the S. aureus strain ATCC 29213 (Table 5).

[4] = Murine pharmacokinetics studies (oral, dried blood spots); format: in vivo, mice; conditions: 50 mg/kg single oral dose; for Cmax / AUC(0-t): mouse, whole blood (dried blood spots); for Cmax: po, 50 mg/kg, read-out: Mouse Oral PK DBS: Average Cmax; for AUC(0-t): read-out: Mouse Oral PK DBS: Average AUC(0-24 h) (converted)
Protocol: Murine pharmacokinetics studies. The methods were performed as previously described. Briefly, test compounds were administered to mice by oral gavage (3 mice per compound) followed by tail blood sampling at intervals of 30, 60, 120, 240, 360, 480, and 1440 min. Blood samples were analyzed by extracting dried blood spots in acetonitrile for measurements of compound concentrations by liquid chromatography/tandem mass spectrometry.
Pharmacokinetics studies: Selected compounds were administered to mice in single oral doses at 50 mg/kg and tail blood was sampled at time intervals out to 24 h to assess blood exposure (Table 9).

S. aureus (ATCC 29213) [5] = assay: Macromolecular synthesis assays (radiolabeled precursor incorporation); format: cell-based, Staphylococcus aureus; conditions: 30 minute incubations
Protocol: Macromolecular synthesis assays: Methods for measuring uptake of radiolabeled precursors by S. aureus (ATCC strain 29213) were adapted from previous publications. For these assays, bacteria were grown in defined media (DM): RPMI-1640 pH 7.3±0.1 without phenol red or L-glutamine (Lonza, Basel, Switzerland) supplemented with 4 mM L-glutamine (Lonza, Basel, Switzerland), 10 mM HEPES (Lonza, Basel, Switzerland), and 1% (w/v) D-glucose (Sigma Aldrich, St. Louis, Mo.). Fresh overnight cultures grown in DM at 37° C. were diluted 1:50 in pre-warmed DM and grown at 37° C. with shaking (150 rpm) until reaching an OD600 of 0.420 correlating to ˜1*10^9 CFUs/mL in mid-log phase. Each compound was assayed in quadruplicate with an 11-point three-fold serial dilution per radioisotope. A pre-warmed 96-well V-bottom plate (Corning 3894; Corning, Corning, Mass.) containing 25 μL of 4× final concentration of test compound was inoculated with 65 μL of mid-log phase bacteria (OD600 of 0.420). Both positive and negative control wells received 25 μL untreated DM and 65 μL of inoculum at the same time. After one minute, 10 μL of radiolabeled precursor (10× final concentration in DM) was added to samples and positive control wells. Final isotope concentrations for assay of [3H]-lysine (protein), [3H]-thymidine (DNA), and [3H]-uridine (RNA) were 10 μCi/mL, 2 μCi/mL, and 2 μCi/mL respectively. […] After termination, 10 μL of 10× radiolabeled precursor was added to negative control wells. The negative control consisted of adding radiolabeled precursors after termination of the bacterial incubation in order to represent background measurement of the isotope. Plates were sealed with plate tape (Thermo Fischer Scientific, Waltham, Mass.) and shaken at 250 rpm for one hour at room temperature. Aliquots of 125 μL were transferred from the 96-well V-bottom plates to 96-well filter plates (Merck Millipore, Billerica, Mass.). To bind macromolecules, the samples were passed through the filter membrane (0.45 μM hydrophilic Durapore PVDF membrane) with a vacuum manifold, then the filter was washed with 4×200 μL 10% TCA and 1×150 μL of 95% ethanol, and dried overnight in vacuum at room temperature. 25 μL Ultima Gold scintillation fluid (Perkin Elmer, Waltham, Mass.) was added to each well and DPM was quantified using a MicroBeta^2-2450 (Perkin Elmer, Waltham, Mass.) scintillation counter. The percent incorporation was determined by subtracting each well by the average negative background and dividing by the average positive incorporation×100. Error bars represent SEM between replicates. The assay was run twice with similar results.

| SMILES | MIC [1] [µg/mL] | Resistance frequency (Expt. 1) (S. aureus (ATCC 29213) [2]) | Resistance frequency (Expt. 2) (S. aureus (ATCC 29213) [2]) | MIC (S. aureus (ATCC 29213) [3]) [µg/mL] | MBC (S. aureus (ATCC 29213) [3]) [µg/mL] | Cmax [4] [ng/mL] | AUC(0-t) [4] [ng·h/mL] | Incorporation of 3H-Lysine (protein synthesis) (S. aureus (ATCC 29213) [5]) | Resistance frequency (average or greater #) (S. aureus (ATCC 29213) [2]) | Mouse Oral PK DBS: Average Cmax [4] [ng/mL] |
| --- | --- | --- | --- | --- | --- | --- | --- | --- | --- | --- |
| Fc1ccc2nc(NCCCNCc3cc(Cl)cc(Cl)c3)[nH]c2n1 [Compound 1614, [(3,5-dichlorophenyl)methyl][3-({5-fluoro-3H-imidazo[4,5-b]pyridin-2-yl}amino)propyl]amine] | 5 (≈ 13.6 µM) | – | – | – | – | – | – | – | – | – |
| Fc1ccc2nc(NCCCN[C@@H]3CCNc4c(Cl)cc(Cl)cc43)[nH]c2n1 [Compound 1717, (4R)-6,8-dichloro—N-[3-({5-fluoro-3H-imidazo[4,5-b]pyridin-2-yl}amino)propyl]-1,2,3,4-tetrahydroquinolin-4-amine, reference compound] | 0.156 (≈ 0.381 µM) | 2.89 × 10^−9 | 5.43 × 10^−9 | 0.156 (≈ 0.381 µM) | 5 (≈ 12.2 µM) | ~1500 | 15700 | profoundly inhibited | – | – |
| CCn1c(Cc2ccc(OC)cc2Cl)cn(Cc2nc3nc(Cl)ccc3[nH]2)c1=O [Compound 2093, 1-({5-chloro-1H-imidazo[4,5-b]pyridin-2-yl}methyl)-4-[(2-chloro-4-methoxyphenyl)methyl]-3-ethyl-2,3-dihydro-1H-imidazol-2-one] | 0.313 (≈ 0.724 µM) | 1.60 × 10^−8 | 2.58 × 10^−8 | 0.078 (≈ 0.18 µM) | 1.25 (≈ 2.89 µM) | 7570 ± 2290 | 20400 | profoundly inhibited | 2.10 × 10^−8 | – |
| CCn1c(Cc2ccc(OC)cc2Cl)cn(Cc2nc3nc(F)ccc3[nH]2)c1=O [Compound 2114, 4-[(2-chloro-4-methoxyphenyl)methyl]-3-ethyl-1-({5-fluoro-1H-imidazo[4,5-b]pyridin-2-yl}methyl)-2,3-dihydro-1H-imidazol-2-one] | – | – | – | – | – | 5450 ± 750 | 15000 | – | – | – |
| COc1cc(Cl)c(-c2cccc3nc(Cc4nc5nc(Cl)ccc5[nH]4)cn23)cc1OC [Compound 2144, 2-({5-chloro-1H-imidazo[4,5-b]pyridin-2-yl}methyl)-5-(2-chloro-4,5-dimethoxyphenyl)imidazo[1,2-a]pyridine] | 0.039 (≈ 0.0858 µM) | 3.15 × 10^−9 | 2.45 × 10^−8 | 0.01 (≈ 0.022 µM) | 0.313 (≈ 0.689 µM) | ~9000 | 63200 | profoundly inhibited | 1.38 × 10^−8 | 8950 ± 1380 |
| CC(=O)NC[C@H]1CN(c2ccc(N3CCOCC3)c(F)c2)C(=O)O1 [LNZ, linezolid] | 2.5 (≈ 7.41 µM) | – | – | 2.5 (≈ 7.41 µM) | 160 (≈ 474 µM) | 26500 ± 15200 | 94400 | – | – | – |
